Results published in patent publication US8927717B1, “Thiochromeno[2,3-c]quinolin-12-one derivatives, preparation method and application thereof” (National Defense Medical Center, priority 2014, dated 2015).

Tests used:
TOP I (Topoisomerase I) [1] = molecular target: T1, TOP I (Topoisomerase I) (Homo sapiens, UniProt P11387); test: TOP I mediated supercoiled DNA relaxation assay; assay type: biochemical; conditions: primary assay at 25 and/or 50 μM
T1 construct: purchased TopoGEN TG2005H
T1 sequence (P11387 1-765): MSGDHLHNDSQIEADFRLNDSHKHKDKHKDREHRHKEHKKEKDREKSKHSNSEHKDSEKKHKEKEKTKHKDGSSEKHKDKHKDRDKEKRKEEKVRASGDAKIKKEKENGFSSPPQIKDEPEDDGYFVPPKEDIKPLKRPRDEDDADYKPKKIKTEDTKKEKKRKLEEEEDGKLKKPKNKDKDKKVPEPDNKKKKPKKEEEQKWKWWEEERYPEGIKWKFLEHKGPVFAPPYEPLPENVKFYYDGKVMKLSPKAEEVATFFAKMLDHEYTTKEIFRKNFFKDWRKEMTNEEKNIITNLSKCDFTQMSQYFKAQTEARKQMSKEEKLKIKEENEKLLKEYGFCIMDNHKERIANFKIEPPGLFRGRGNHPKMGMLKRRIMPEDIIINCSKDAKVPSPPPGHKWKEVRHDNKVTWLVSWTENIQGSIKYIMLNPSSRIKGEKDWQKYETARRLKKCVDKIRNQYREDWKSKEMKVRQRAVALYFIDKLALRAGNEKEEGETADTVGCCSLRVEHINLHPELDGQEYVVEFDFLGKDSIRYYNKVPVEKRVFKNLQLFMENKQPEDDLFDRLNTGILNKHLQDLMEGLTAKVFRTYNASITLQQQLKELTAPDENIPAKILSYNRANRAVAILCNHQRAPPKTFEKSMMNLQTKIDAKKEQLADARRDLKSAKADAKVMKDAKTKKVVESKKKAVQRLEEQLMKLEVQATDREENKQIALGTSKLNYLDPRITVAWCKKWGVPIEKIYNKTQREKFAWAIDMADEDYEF
Method: According to the cell cytotoxicity, compounds 5, 7, 8, 16, 19, N2, N7, N8, N9, N14-N19, and N25 were also selected for primary TOP I and II activities assays at 25 and/or 50 μM (FIG. 2-4).

[2] = molecular target: T2, TOP II (Topoisomerase II) (Homo sapiens, UniProt P11388); test: TOP II-catalyzed relaxation of plasmid DNA assay; assay type: biochemical
T2 construct: purchased TopoGEN TG-2000H-1
Method: We also performed TOP II-catalyzed relaxation of plasmid DNA assays (FIG. 5-7) to evaluate if compounds could inhibit TOP II. […] The IC50 value of compounds 7, N7, N8, N14, N15, N18, and N19 were about 10, 10, 1, 10, 5, 1, and 1 μM, respectively (detect by TopoGEN TG2005H, TG-2000H-1).

MOLT-4 = assay type: cell-based
A549/ATCC = assay type: cell-based
HOP-92 = assay type: cell-based; conditions: Non-small cell lung cancer; 10^−5 molar; 48 hours; SRB
NCI-H23 = assay type: cell-based; conditions: Non-small cell lung cancer; 10^−5 molar; 48 hours; SRB
HCC-2998 = assay type: cell-based
SF-268 = assay type: cell-based
SF-539 = assay type: cell-based
MALME-3M = assay type: cell-based; conditions: Melanoma; 10^−5 molar; 48 hours; SRB
MDA-MB-435 = assay type: cell-based
SK-MEL-2 = assay type: cell-based
UACC-257 = assay type: cell-based
UACC-62 = assay type: cell-based
IGROV1 = assay type: cell-based
OVCAR-3 = assay type: cell-based
OVCAR-4 = assay type: cell-based
786-0 = assay type: cell-based
ACHN = assay type: cell-based
CAKI-1 = assay type: cell-based
UO-31 = assay type: cell-based
MDA-MB-486 = assay type: cell-based
TOP I (Topoisomerase I) [3] = molecular target: T1, TOP I (Topoisomerase I); test: TOP I mediated supercoiled DNA relaxation assay; assay type: biochemical; conditions: five different concentrations; TopoGEN TG2005H, TG-2000H-1
[4] = Homo sapiens, A549/ATCC, five dose
[5] = Homo sapiens, HCC-2998, five dose
[6] = CNS cancer, 10^−5 molar, 48 hours, SRB
[7] = Homo sapiens, SF-539, five dose
[8] = Melanoma, 10^−5 molar, 48 hours, SRB
[9] = Homo sapiens, SK-Mel-2, five dose
[10] = Ovarian cancer, 10^−5 molar, 48 hours, SRB
[11] = Renal cancer, 10^−5 molar, 48 hours, SRB

T2 sequence (P11388 whole entry): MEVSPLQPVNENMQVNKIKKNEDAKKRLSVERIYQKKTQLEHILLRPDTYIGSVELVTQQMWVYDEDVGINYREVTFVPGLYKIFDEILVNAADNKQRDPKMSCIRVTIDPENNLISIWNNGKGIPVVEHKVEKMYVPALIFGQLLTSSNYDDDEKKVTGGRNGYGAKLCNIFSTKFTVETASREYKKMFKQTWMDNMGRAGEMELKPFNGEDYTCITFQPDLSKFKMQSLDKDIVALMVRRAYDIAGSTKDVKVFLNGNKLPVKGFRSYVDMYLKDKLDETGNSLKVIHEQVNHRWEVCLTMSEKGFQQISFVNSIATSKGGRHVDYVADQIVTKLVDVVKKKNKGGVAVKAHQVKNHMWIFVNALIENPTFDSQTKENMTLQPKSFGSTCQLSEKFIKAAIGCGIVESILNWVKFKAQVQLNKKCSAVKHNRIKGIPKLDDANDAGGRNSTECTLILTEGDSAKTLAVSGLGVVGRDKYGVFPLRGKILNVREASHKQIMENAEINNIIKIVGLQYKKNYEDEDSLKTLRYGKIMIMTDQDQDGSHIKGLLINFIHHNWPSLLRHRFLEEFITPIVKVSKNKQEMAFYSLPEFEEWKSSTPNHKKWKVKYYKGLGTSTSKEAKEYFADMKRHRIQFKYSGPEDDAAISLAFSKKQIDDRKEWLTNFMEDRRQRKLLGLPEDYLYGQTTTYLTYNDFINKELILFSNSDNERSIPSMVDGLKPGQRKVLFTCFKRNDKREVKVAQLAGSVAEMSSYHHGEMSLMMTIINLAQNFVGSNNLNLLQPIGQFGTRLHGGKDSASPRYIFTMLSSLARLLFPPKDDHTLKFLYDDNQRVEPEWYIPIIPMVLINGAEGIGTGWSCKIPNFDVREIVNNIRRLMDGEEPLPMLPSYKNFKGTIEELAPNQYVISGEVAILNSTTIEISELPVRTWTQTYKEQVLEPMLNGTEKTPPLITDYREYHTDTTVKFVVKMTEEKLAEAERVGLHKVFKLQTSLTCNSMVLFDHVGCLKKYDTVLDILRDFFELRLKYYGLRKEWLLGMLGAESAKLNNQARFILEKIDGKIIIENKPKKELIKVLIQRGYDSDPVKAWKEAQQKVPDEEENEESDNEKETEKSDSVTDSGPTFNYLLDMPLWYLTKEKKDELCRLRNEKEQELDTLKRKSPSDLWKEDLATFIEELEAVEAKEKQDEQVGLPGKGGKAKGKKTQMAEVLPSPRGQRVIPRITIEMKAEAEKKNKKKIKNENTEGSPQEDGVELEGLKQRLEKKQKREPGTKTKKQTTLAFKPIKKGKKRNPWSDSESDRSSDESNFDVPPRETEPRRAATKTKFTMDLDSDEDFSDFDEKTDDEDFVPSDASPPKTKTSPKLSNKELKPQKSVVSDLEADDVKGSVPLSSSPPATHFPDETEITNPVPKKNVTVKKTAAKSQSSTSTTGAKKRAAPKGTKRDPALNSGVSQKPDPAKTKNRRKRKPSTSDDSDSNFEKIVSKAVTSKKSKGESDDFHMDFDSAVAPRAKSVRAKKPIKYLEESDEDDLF

CN(C)CCNc1nc2ccccc2c2c(=O)c3cc(Cl)ccc3sc12 [Compound N7, 10-Chloro-6-((2-(dimethylamino)ethyl)amino)-12H-thiochromeno[2,3-c]quinolin-12-one]
inhibitory effect in TOP I activity assay compared with CPT (TOP I (Topoisomerase I) [1]): more potent inhibitory effects than CPT | IC50 ([2]; five different concentrations, TopoGEN TG2005H, TG-2000H-1, read-out: IC50 value, TOP II mediated supercoiled DNA relaxation): ~10 µM | inhibitory effect in TOP II relaxation assay compared with VP-16 ([2]; primary assay at 25 and/or 50 μM): more potent inhibitory effects than the positive agent VP-16 | GI50 (MOLT-4; Homo sapiens, MOLT-4, five dose): 1.71 µM | CC50 (MOLT-4; Homo sapiens, MOLT-4, five dose, read-out: LC50 (the source's name)): 6.74 µM | Growth percent MOLT-4 (MOLT-4; Leukemia, 10^−5 molar, 48 hours, SRB): −56.34% | TGI (MOLT-4; MOLT-4, five dose): 3.40 µM | TGI (A549/ATCC; A549/ATCC, five dose): 3.17 µM | GI50 (A549/ATCC; [4]): 1.66 µM | LC50 (A549/ATCC; [4]): 6.06 µM | Growth percent A549/ATCC (A549/ATCC; Non-small cell lung cancer, 10^−5 molar, 48 hours, SRB): 23.38% | Growth percent HOP-92 (HOP-92): −10.12% | Growth percent NCI-H23 (NCI-H23): 72.59% | Growth percent HCC-2998 (HCC-2998; Colon cancer, 10^−5 molar, 48 hours, SRB): −83.65% | TGI (HCC-2998; HCC-2998, five dose): 3.38 µM | GI50 (HCC-2998; [5]): 1.68 µM | LC50 (HCC-2998; [5]): 6.82 µM | Growth percent SF-268 (SF-268; [6]): 39.05% | GI50 (SF-268; Homo sapiens, SF-268, five dose): 1.57 µM | CC50 (SF-268; Homo sapiens, SF-268, five dose, read-out: LC50 (the source's name)): 6.35 µM | TGI (SF-268; SF-268, five dose): 3.16 µM | Growth percent SF-539 (SF-539; [6]): 48.73% | GI50 (SF-539; [7]): 1.68 µM | LC50 (SF-539; [7]): 5.67 µM | TGI (SF-539; SF-539, five dose): 3.08 µM | Growth percent MALME-3M (MALME-3M): −4.32% | GI50 (MDA-MB-435; Homo sapiens, MDA-MB-435, five dose): 1.71 µM | CC50 (MDA-MB-435; Homo sapiens, MDA-MB-435, five dose, read-out: LC50 (the source's name)): 6.05 µM | TGI (MDA-MB-435; MDA-MB-435, five dose): 3.22 µM | Growth percent MDA-MB-435 (MDA-MB-435; [8]): −64.64% | GI50 (SK-MEL-2; [9]): 1.8 µM | LC50 (SK-MEL-2; [9]): 6.12 µM | Growth percent SK-MEL-2 (SK-MEL-2; [8]): −7.83% | TGI (SK-MEL-2; SK-Mel-2, five dose): 3.32 µM | GI50 (UACC-257; Homo sapiens, UACC-257, five dose): 1.74 µM | CC50 (UACC-257; Homo sapiens, UACC-257, five dose, read-out: LC50 (the source's name)): 5.93 µM | Growth percent UACC-257 (UACC-257; [8]): −48.22% | TGI (UACC-257; UACC-257, five dose): 3.21 µM | GI50 (UACC-62; Homo sapiens, UACC-62, five dose): 1.7 µM | CC50 (UACC-62; Homo sapiens, UACC-62, five dose, read-out: LC50 (the source's name)): 5.88 µM | Growth percent UACC-62 (UACC-62; [8]): −76.58% | TGI (UACC-62; UACC-62, five dose): 3.16 µM | GI50 (IGROV1; Homo sapiens, IGROV-1, IGROV1, five dose): 1.7 µM | CC50 (IGROV1; Homo sapiens, IGROV-1, IGROV1, five dose, read-out: LC50 (the source's name)): 6.58 µM | TGI (IGROV1; IGROV1, five dose): 3.34 µM | Growth percent IGROV1 (IGROV1; [10]): 33.20% | GI50 (OVCAR-3; Homo sapiens, OVCAR-3, five dose): 1.61 µM | CC50 (OVCAR-3; Homo sapiens, OVCAR-3, five dose, read-out: LC50 (the source's name)): 5.58 µM | TGI (OVCAR-3; OVCAR-3, five dose): 3.00 µM | Growth percent OVCAR-3 (OVCAR-3; [10]): 19.74% | GI50 (OVCAR-4; Homo sapiens, OVCAR-4, five dose): 1.19 µM | CC50 (OVCAR-4; Homo sapiens, OVCAR-4, five dose, read-out: LC50 (the source's name)): 6.35 µM | TGI (OVCAR-4; OVCAR-4, five dose): 2.75 µM | Growth percent OVCAR-4 (OVCAR-4; [10]): 60.67% | TGI (786-0; 786-0, five dose): 3.45 µM | GI50 (786-0; Homo sapiens, 786-0, five dose): 1.84 µM | CC50 (786-0; Homo sapiens, 786-0, five dose, read-out: LC50 (the source's name)): 6.46 µM | Growth percent 786-0 (786-0; [11]): 43.11% | TGI (ACHN; ACHN, five dose): 3.07 µM | GI50 (ACHN; Homo sapiens, ACHN, five dose): 1.63 µM | CC50 (ACHN; Homo sapiens, ACHN, five dose, read-out: LC50 (the source's name)): 5.77 µM | Growth percent ACHN (ACHN; [11]): 7.55% | TGI (CAKI-1; CAKI-1, five dose): 2.80 µM | GI50 (CAKI-1; Homo sapiens, CAKI-1, five dose): 1.43 µM | CC50 (CAKI-1; Homo sapiens, CAKI-1, five dose, read-out: LC50 (the source's name)): 5.49 µM | Growth percent CAKI-1 (CAKI-1; [11]): 34.60% | GI50 (UO-31; Homo sapiens, UO-31, five dose): 1.19 µM | CC50 (UO-31; Homo sapiens, UO-31, five dose, read-out: LC50 (the source's name)): 5.22 µM | Growth percent UO-31 (UO-31; [11]): 21.83% | TGI (UO-31; UO-31, five dose): 2.50 µM | GI50 (MDA-MB-486; 60 cell, MDA-MB-486, five dose): 1.47 µM | CC50 (MDA-MB-486; 60 cell, MDA-MB-486, five dose, read-out: LC50 (the source's name)): 7.34 µM | Growth percent MDA-MB-486 (MDA-MB-486; Breast cancer, 10^−5 molar, 48 hours, SRB): 12.81% | TGI (MDA-MB-486; MDA-MB-486, five dose): 3.28 µM | IC50 (TOP I (Topoisomerase I) [3]): ~10 µM
